# Experimental data published in ChEMBL document CHEMBL4828725 (Eur J Med Chem, 2021).
# What was measured:
# [1] = molecular target: Beta-glucuronidase (Escherichia coli (strain K12)) (UniProt P05804); assay: Inhibition of Escherichia coli beta-glucuronidase using p-nitrophenyl glycoside as substrate assessed as release of p-nitrophenol at 1000 uM measured by spectrometric assay relative to control
# [2] = Inhibition of Aspergillus niger amyloglucosidase using p-nitrophenyl glycoside as substrate assessed as release of p-nitrophenol measured by spectrometric assay
# [3] = test system: Penicillium decumbens; assay: Inhibition of Penicillium decumbens alpha-L-rhamnosidase using p-nitrophenyl glycoside as substrate assessed as release of p-nitrophenol at 1000 uM measured by spectrometric assay relative to control
# [4] = Inhibition of bovine liver beta-glucosidase using p-nitrophenyl glycoside as substrate assessed as release of p-nitrophenol measured by spectrometric assay; parameters: species or system Bos taurus
# [5] = Inhibition of almond beta-glucosidase using p-nitrophenyl glycoside as substrate assessed as release of p-nitrophenol measured by spectrometric assay; parameters: species or system Prunus dulcis
# [6] = molecular target: Alpha-galactosidase (Coffea arabica, UniProt Q42656); assay: Inhibition of coffee beans alpha-galactosidase using p-nitrophenyl glycoside as substrate assessed as release of p-nitrophenol measured by spectrometric assay
# Chain of Alpha-galactosidase (Q42656 whole entry): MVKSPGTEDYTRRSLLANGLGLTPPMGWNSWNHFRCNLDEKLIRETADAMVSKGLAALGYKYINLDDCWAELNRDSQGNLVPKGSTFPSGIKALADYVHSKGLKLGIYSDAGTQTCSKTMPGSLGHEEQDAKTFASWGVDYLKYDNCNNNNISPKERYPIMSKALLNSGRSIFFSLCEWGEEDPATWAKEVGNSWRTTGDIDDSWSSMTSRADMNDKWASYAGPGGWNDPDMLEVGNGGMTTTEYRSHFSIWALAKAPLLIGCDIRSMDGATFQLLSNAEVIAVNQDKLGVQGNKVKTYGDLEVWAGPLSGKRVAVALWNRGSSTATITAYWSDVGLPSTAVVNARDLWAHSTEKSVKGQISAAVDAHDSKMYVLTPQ
# [7] = molecular target: T1, Tissue alpha-L-fucosidase (Bos taurus) (UniProt Q2KIM0); assay: Inhibition of bovine kidney alpha-L-fucosidase using p-nitrophenyl glycoside as substrate assessed as release of p-nitrophenol at 1000 uM measured by spectrometric assay relative to control; format: tissue-based
# T1 sequence (whole entry): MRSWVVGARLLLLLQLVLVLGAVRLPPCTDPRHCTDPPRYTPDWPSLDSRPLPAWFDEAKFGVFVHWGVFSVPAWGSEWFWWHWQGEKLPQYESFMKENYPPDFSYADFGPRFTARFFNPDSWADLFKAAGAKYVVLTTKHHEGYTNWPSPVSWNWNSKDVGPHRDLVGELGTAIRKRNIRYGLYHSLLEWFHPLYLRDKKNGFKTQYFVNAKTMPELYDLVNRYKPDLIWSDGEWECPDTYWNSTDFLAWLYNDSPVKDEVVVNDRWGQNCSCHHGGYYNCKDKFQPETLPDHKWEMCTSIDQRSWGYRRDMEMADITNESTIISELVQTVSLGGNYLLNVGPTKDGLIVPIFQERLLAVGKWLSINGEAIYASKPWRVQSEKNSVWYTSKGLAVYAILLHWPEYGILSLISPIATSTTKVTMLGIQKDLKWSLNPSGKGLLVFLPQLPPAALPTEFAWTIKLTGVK
# [8] = molecular target: Alpha-galactosidase (Coffea arabica) (UniProt Q42656); assay: Inhibition of coffee beans alpha-galactosidase using p-nitrophenyl glycoside as substrate assessed as release of p-nitrophenol at 1000 uM measured by spectrometric assay relative to control
# Chain of Alpha-galactosidase (Coffea arabica) (Q42656 16-378 limits assumed): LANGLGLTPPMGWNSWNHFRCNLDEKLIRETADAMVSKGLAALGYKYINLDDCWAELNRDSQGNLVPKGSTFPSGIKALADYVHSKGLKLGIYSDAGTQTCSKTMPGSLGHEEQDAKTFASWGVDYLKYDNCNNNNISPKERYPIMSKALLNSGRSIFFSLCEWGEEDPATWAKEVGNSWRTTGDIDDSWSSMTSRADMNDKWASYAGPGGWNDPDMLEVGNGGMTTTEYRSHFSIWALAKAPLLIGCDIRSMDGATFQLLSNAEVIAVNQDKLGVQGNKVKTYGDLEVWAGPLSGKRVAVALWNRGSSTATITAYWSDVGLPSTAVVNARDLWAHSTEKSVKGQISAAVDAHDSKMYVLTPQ
# [9] = test system: Helix pomatia; assay: Inhibition of snail beta-mannosidase using p-nitrophenyl glycoside as substrate assessed as release of p-nitrophenol at 1000 uM measured by spectrometric assay relative to control
# [10] = molecular target: T2, Tissue alpha-L-fucosidase (Bos taurus, UniProt Q2KIM0); assay: Inhibition of bovine kidney alpha-L-fucosidase using p-nitrophenyl glycoside as substrate assessed as release of p-nitrophenol measured by spectrometric assay
# T2 sequence (Q2KIM0 whole entry): T1 sequence (whole entry)
# [11] = Inhibition of snail beta-mannosidase using p-nitrophenyl glycoside as substrate assessed as release of p-nitrophenol measured by spectrometric assay; parameters: species or system Helix pomatia
# [12] = Inhibition of porcine kidney alpha-trehalase using p-nitrophenyl glycoside as substrate assessed as release of p-nitrophenol measured by spectrometric assay; parameters: species or system Sus scrofa
# [13] = Inhibition of Penicillium decumbens alpha-L-rhamnosidase using p-nitrophenyl glycoside as substrate assessed as release of p-nitrophenol measured by spectrometric assay
# [14] = molecular target: Beta-glucuronidase (Escherichia coli (strain K12), UniProt P05804); assay: Inhibition of Escherichia coli beta-glucuronidase using p-nitrophenyl glycoside as substrate assessed as release of p-nitrophenol measured by spectrometric assay
# Chain of Beta-glucuronidase (P05804 whole entry): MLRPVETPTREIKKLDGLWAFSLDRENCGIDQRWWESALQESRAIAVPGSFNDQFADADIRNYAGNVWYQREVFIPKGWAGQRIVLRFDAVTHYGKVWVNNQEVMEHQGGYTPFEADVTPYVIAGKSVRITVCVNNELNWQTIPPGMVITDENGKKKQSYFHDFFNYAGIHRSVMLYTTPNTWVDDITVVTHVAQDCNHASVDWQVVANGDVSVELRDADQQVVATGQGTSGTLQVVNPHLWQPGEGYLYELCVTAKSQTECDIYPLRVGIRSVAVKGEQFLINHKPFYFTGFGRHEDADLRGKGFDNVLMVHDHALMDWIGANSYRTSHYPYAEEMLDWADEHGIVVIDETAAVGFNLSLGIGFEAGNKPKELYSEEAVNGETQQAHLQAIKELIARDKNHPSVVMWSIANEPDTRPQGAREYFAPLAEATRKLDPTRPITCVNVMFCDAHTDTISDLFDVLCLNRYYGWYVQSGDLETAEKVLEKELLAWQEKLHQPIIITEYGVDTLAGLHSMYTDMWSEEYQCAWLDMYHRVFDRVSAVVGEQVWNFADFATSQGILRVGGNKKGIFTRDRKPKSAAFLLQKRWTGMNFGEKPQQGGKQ
# [15] = species on record: Bos taurus; assay: Inhibition of bovine liver beta-galactosidase using p-nitrophenyl glycoside as substrate assessed as release of p-nitrophenol at 1000 uM measured by spectrometric assay relative to control
# [16] = test system: Prunus dulcis; assay: Inhibition of almond beta-glucosidase using p-nitrophenyl glycoside as substrate assessed as release of p-nitrophenol at 1000 uM measured by spectrometric assay relative to control
# [17] = molecular target: T3, Alpha-mannosidase (Canavalia ensiformis) (UniProt C0HJB3); assay: Inhibition of jack bean alpha-mannosidase using p-nitrophenyl glycoside as substrate assessed as release of p-nitrophenol at 1000 uM measured by spectrometric assay relative to control
# T3 sequence (whole entry): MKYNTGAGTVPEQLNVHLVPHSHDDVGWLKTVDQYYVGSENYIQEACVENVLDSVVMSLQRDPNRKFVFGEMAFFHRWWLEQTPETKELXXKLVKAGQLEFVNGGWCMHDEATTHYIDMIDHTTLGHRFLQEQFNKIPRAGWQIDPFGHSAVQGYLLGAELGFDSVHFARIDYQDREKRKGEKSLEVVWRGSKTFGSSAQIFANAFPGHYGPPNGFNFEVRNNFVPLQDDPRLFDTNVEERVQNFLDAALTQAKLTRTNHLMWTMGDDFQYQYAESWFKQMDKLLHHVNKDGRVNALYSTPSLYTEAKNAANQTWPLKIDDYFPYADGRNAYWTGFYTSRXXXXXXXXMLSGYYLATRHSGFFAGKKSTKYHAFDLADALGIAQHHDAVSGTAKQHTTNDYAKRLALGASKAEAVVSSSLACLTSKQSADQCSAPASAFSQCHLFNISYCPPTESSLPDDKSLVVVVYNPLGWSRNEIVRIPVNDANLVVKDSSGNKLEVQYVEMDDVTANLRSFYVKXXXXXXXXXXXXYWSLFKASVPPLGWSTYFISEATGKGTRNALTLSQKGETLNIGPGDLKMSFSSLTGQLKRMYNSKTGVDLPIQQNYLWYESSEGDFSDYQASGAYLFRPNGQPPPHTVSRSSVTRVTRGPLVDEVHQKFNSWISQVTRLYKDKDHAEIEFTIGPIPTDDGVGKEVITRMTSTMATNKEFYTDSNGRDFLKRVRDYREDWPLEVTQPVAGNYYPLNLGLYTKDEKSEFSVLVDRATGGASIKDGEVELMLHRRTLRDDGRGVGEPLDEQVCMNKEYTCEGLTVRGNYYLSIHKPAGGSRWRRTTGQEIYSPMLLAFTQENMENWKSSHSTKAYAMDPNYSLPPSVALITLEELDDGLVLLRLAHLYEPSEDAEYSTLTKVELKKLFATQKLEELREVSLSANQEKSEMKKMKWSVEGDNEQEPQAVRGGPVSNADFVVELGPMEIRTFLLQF
# [18] = Inhibition of bovine liver beta-galactosidase using p-nitrophenyl glycoside as substrate assessed as release of p-nitrophenol measured by spectrometric assay; format: tissue-based, Bos taurus
# [19] = Inhibition of jack bean alpha-mannosidase using p-nitrophenyl glycoside as substrate assessed as release of p-nitrophenol measured by spectrometric assay; parameters: species or system Canavalia ensiformis
# [20] = Inhibition of rice alpha-glucosidase using p-nitrophenyl glycoside as substrate assessed as release of p-nitrophenol measured by spectrometric assay; parameters: species or system Oryza sativa
# [21] = Inhibition of rat intestinal maltase using maltose as substrate assessed as release of D-glucose measured by spectrometric assay
# [22] = Inhibition of beta-glucosidase (unknown origin); parameters: species or system Homo sapiens
# [23] = species on record: Bos taurus; assay: Inhibition of bovine liver beta-glucosidase using p-nitrophenyl glycoside as substrate assessed as release of p-nitrophenol at 1000 uM measured by spectrometric assay relative to control; format: tissue-based
# [24] = Inhibition of Agrobacterium sp beta-glucosidase using p-nitrophenyl beta-glucoside as substrate assessed as release of p-nitrophenol measured by plate reader assay
# [25] = species on record: Rattus norvegicus; assay: Inhibition of rat intestinal maltase using maltose as substrate assessed as release of D-glucose at 1000 uM measured by spectrometric assay
# [26] = molecular target: T4, Sucrase-isomaltase, intestinal (Rattus norvegicus, UniProt P23739); assay: Inhibition of rat intestinal isomaltase using p-nitrophenyl glycoside as substrate assessed as release of p-nitrophenol measured by spectrometric assay
# T4 sequence (P23739 1-1013 limits assumed): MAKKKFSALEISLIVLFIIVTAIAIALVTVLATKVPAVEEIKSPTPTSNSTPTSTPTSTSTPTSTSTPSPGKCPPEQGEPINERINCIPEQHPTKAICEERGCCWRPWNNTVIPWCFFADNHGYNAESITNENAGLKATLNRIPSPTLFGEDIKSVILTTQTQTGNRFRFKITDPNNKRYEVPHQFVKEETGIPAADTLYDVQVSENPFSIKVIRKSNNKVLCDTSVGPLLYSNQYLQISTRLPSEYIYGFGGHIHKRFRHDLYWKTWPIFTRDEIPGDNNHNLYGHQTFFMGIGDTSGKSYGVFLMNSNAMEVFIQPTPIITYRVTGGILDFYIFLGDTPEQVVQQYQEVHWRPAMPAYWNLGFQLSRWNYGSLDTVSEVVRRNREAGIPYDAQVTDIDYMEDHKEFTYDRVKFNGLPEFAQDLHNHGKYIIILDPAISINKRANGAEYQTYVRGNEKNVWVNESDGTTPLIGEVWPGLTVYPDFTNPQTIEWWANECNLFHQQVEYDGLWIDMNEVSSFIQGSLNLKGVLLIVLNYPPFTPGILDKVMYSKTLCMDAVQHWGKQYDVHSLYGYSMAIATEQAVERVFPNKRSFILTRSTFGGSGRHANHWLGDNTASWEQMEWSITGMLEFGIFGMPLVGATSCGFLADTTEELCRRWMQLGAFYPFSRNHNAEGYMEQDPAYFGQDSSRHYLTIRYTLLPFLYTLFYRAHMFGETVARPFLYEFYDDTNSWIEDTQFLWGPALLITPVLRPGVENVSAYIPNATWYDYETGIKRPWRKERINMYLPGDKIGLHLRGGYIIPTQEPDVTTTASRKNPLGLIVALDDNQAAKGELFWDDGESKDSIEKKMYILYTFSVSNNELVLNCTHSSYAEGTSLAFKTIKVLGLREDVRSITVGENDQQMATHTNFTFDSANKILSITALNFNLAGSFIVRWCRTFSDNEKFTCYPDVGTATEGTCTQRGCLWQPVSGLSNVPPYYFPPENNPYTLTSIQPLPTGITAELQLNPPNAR
# T4 sequence (P23739 1014-1841 limits assumed): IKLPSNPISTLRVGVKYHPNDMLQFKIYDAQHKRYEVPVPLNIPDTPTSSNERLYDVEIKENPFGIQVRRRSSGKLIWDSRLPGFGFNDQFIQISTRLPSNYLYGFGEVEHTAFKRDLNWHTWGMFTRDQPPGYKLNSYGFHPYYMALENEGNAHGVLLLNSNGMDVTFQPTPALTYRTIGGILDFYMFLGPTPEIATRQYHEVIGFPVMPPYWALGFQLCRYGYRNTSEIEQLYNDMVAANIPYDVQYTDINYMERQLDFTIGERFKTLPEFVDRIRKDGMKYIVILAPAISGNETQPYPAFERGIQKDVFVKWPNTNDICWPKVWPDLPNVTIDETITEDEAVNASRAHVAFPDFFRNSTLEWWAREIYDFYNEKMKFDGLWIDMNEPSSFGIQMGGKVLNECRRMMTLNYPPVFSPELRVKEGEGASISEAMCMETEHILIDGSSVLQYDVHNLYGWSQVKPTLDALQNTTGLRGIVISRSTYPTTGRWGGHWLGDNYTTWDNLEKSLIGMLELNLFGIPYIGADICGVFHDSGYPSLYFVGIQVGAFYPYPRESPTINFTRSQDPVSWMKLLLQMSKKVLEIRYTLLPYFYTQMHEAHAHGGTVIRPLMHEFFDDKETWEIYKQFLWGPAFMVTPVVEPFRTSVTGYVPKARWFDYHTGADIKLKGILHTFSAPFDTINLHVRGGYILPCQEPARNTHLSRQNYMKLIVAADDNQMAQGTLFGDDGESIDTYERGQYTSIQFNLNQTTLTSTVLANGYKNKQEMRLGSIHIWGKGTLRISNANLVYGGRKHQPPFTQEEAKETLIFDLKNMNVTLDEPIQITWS
# [27] = molecular target: T4, Sucrase-isomaltase, intestinal; assay: Inhibition of rat intestinal sucrase using p-nitrophenyl glycoside as substrate assessed as release of p-nitrophenol measured by spectrometric assay
# [28] = species on record: Sus scrofa; assay: Inhibition of porcine kidney alpha-trehalase using p-nitrophenyl glycoside as substrate assessed as release of p-nitrophenol at 1000 uM measured by spectrometric assay relative to control
# [29] = test system: Oryza sativa; assay: Inhibition of rice alpha-glucosidase using p-nitrophenyl glycoside as substrate assessed as release of p-nitrophenol at 1000 uM measured by spectrometric assay
# [30] = test system: Aspergillus niger; assay: Inhibition of Aspergillus niger amyloglucosidase using p-nitrophenyl glycoside as substrate assessed as release of p-nitrophenol at 1000 uM measured by spectrometric assay relative to control
# [31] = molecular target: Maltase-glucoamylase (Homo sapiens, UniProt O43451); assay: Inhibition of human alpha-glucosidase
# Chain of Beta-glucuronidase (Escherichia coli (strain K12)) (P05804 whole entry, looked up): as the sequence (P05804 whole entry) above
Structure (SMILES),inhibition [1] [%],inhibition [3] [%],IC50 [4],IC50 [5],IC50 [6],inhibition [7] [%],inhibition [8] [%],inhibition [9] [%],IC50 [10],IC50 [11],IC50 ([12]; read-out: IC50) [µM],IC50 [13],IC50 [14],inhibition [15] [%],inhibition [16] [%],inhibition [17] [%],IC50 [18],IC50 [19],IC50 [21] [nM],inhibition [23] [%],other results
OC[C@H]1NC[C@H](O)[C@@H](O)[C@@H]1O [DUVOGLUSTAT],0.8,45.6,Not Active,Not Active,Not Active,1,13.7,4.8,Not Active,Not Active,48,Not Active,Not Active,0,12.1,17.4,Not Active,Not Active,120,4.6,IC50 ([2]; read-out: IC50): 763 µM; IC50 ([20]; read-out: IC50): 440 nM; IC50 [22]: 270 nM
C#Cc1ccc(C(=O)OCCCCCCN2C[C@H](O)[C@@H](O)[C@H](O)[C@H]2CO)cc1,–,–,–,–,–,–,–,–,–,–,–,–,–,–,–,–,–,–,–,–,IC50 [24]: 2200 nM
CCCCCCCCCCC[C@@]1(CO)NC[C@H](O)[C@@H](O)[C@@H]1O.Cl,5.3,4.8,Not Active,Not Active,Not Active,1.1,1.6,0,Not Active,Not Active,–,Not Active,Not Active,–,5.2,3.3,–,Not Active,765000,29.8,inhibition [25]: 4.6%; IC50 [2]: Not Active; IC50 [26]: Not Active; IC50 [12]: Not Active; IC50 [27]: Not Active; IC50 ([18]; read-out: IC50): 100 µM; inhibition [28]: 0%; inhibition [29]: 17.6%; IC50 [20]: Not Active; inhibition [30]: 0%
C[C@]1(CO)NC[C@H](O)[C@@H](O)[C@@H]1O.Cl,0,2.4,Not Active,Not Active,–,0,–,2,Not Active,Not Active,42,Not Active,Not Active,11.9,6.7,2.1,Not Active,Not Active,53,9.5,IC50 [2]: Not Active; IC50 ([26]; read-out: IC50): 960 nM; IC50 ([6]; read-out: IC50): 7.5 µM; IC50 ([27]; read-out: IC50): 200 nM; IC50 [31]: 1000 nM; IC50 ([20]; read-out: IC50): 15.5 nM; inhibition [30]: 8%
